From ChEMBL document CHEMBL4507277

Assays:
[1] = target: Neutrophil elastase (Homo sapiens) (UniProt P08246); details: Compound concentration 10.0 uM
[2] = target: Platelet-activating factor receptor (Homo sapiens) (UniProt P25105); details: Compound concentration 10.0 uM
[3] = target: Type-1 angiotensin II receptor (Oryctolagus cuniculus) (UniProt P34976); details: Homo sapiens; Compound concentration 10.0 uM
[4] = target: Serine/threonine-protein kinase D2 (Homo sapiens) (UniProt Q9BZL6); details: Compound concentration 1000.0 nM
[5] = target: Fibroblast growth factor receptor 1 (Homo sapiens) (UniProt P11362); details: Compound concentration 1000.0 nM
[6] = target: Beta-1 adrenergic receptor (Homo sapiens) (UniProt P08588); details: Compound concentration 10.0 uM
[7] = target: Gamma-aminobutyric acid receptor subunit beta-1 (Homo sapiens) (UniProt P18505); details: Rattus norvegicus; Compound concentration 10.0 uM
[8] = target: Ephrin type-B receptor 4 (Homo sapiens) (UniProt P54760); details: Compound concentration 1000.0 nM
[9] = system: Tyrosine-protein kinase ABL1 (Homo sapiens), P00519 [H396P]; details: Compound concentration 1000.0 nM
[10] = target: Histamine H1 receptor (Homo sapiens) (UniProt P35367); details: Compound concentration 10.0 uM
[11] = target: Nitric oxide synthase 3 (Bos taurus) (UniProt P29473); details: Compound concentration 10.0 uM
[12] = target: Serine/threonine-protein kinase tousled-like 1 (Homo sapiens) (UniProt Q9UKI8); details: Compound concentration 1000.0 nM
Sequence of Serine/threonine-protein kinase tousled-like 1 (Homo sapiens) (Q9UKI8 whole entry): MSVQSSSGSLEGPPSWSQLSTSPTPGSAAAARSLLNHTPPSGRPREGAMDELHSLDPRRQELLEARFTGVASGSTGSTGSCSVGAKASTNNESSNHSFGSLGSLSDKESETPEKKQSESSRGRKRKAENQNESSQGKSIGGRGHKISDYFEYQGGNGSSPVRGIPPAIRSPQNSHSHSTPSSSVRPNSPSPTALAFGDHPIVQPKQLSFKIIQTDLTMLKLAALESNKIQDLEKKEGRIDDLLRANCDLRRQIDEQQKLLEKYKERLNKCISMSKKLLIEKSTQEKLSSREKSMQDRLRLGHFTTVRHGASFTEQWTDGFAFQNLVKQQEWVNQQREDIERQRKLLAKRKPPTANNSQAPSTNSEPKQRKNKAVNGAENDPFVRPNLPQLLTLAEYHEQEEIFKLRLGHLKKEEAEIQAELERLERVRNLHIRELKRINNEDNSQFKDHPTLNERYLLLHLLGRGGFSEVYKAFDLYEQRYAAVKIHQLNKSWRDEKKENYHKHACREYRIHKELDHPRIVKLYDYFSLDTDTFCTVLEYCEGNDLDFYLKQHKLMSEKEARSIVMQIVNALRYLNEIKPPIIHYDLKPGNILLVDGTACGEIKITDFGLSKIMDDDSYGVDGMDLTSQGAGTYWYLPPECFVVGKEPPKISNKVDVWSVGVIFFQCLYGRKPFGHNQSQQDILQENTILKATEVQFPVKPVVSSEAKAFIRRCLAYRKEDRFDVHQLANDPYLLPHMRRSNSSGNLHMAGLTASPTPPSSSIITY

[13] = target: Insulin-like growth factor 1 receptor (Homo sapiens) (UniProt P08069); details: Compound concentration 1000.0 nM
[14] = target: Carbonic anhydrase 6 (Homo sapiens) (UniProt P23280); details: Compound concentration 10.0 uM
[15] = target: Sodium-dependent dopamine transporter (Homo sapiens) (UniProt Q01959); details: Compound concentration 10.0 uM
[16] = target: Acetylcholine receptor subunit alpha (Homo sapiens) (UniProt P02708); details: Compound concentration 10.0 uM
[17] = target: Cyclin-dependent kinase 8 (Homo sapiens) (UniProt P49336); details: Compound concentration 1000.0 nM
Sequence of Cyclin-dependent kinase 8 (Homo sapiens) (P49336 whole entry): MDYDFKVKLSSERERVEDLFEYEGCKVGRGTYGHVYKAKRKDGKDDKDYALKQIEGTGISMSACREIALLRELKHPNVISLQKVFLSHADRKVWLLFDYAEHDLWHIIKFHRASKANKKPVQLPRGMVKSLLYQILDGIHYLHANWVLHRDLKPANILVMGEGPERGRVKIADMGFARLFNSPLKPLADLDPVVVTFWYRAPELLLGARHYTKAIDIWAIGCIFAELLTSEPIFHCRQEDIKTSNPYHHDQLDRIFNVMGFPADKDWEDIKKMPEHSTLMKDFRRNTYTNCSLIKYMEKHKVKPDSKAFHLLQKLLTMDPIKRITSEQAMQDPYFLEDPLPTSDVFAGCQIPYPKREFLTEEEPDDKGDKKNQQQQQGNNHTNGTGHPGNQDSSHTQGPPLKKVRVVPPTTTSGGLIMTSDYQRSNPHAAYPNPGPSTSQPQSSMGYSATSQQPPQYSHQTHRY

[18] = target: Calpain-1 catalytic subunit (Homo sapiens) (UniProt P07384); details: Compound concentration 10.0 uM
[19] = target: Glutamate receptor ionotropic, NMDA 1 (Rattus norvegicus) (UniProt P35439); details: Compound concentration 10.0 uM
[20] = target: Muscarinic acetylcholine receptor (Rattus norvegicus) (UniProt P08482+P08483+P08485+P08911+P10980); details: Compound concentration 10.0 uM
[21] = target: Potassium voltage-gated channel subfamily A member 1 (Rattus norvegicus) (UniProt P10499); details: Compound concentration 10.0 uM
[22] = target: Serine/threonine-protein kinase TBK1 (Homo sapiens) (UniProt Q9UHD2); details: Compound concentration 1000.0 nM
[23] = target: Sodium-dependent serotonin transporter (Homo sapiens) (UniProt P31645); details: Compound concentration 10.0 uM
[24] = target: Aurora kinase C (Homo sapiens) (UniProt Q9UQB9); details: Compound concentration 1000.0 nM
Sequence of Aurora kinase C (Homo sapiens) (Q9UQB9 whole entry): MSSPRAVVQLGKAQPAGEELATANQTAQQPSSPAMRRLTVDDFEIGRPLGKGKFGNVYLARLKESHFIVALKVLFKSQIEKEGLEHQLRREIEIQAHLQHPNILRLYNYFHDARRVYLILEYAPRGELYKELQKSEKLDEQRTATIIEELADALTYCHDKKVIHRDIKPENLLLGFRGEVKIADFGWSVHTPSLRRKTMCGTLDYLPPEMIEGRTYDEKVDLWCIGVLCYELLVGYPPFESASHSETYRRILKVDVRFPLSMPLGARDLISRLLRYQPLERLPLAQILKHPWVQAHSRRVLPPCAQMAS

[25] = target: D(3) dopamine receptor (Homo sapiens) (UniProt P35462); details: Compound concentration 10.0 uM
[26] = target: D(1A) dopamine receptor (Homo sapiens) (UniProt P21728); details: Compound concentration 10.0 uM
[27] = target: Thromboxane-A synthase (Homo sapiens) (UniProt P24557); details: Compound concentration 10.0 uM
[28] = target: RAC-beta serine/threonine-protein kinase (Homo sapiens) (UniProt P31751); details: Compound concentration 1000.0 nM
[29] = target: Ephrin type-A receptor 8 (Homo sapiens) (UniProt P29322); details: Compound concentration 1000.0 nM
Sequence of Ephrin type-A receptor 8 (Homo sapiens) (P29322 whole entry): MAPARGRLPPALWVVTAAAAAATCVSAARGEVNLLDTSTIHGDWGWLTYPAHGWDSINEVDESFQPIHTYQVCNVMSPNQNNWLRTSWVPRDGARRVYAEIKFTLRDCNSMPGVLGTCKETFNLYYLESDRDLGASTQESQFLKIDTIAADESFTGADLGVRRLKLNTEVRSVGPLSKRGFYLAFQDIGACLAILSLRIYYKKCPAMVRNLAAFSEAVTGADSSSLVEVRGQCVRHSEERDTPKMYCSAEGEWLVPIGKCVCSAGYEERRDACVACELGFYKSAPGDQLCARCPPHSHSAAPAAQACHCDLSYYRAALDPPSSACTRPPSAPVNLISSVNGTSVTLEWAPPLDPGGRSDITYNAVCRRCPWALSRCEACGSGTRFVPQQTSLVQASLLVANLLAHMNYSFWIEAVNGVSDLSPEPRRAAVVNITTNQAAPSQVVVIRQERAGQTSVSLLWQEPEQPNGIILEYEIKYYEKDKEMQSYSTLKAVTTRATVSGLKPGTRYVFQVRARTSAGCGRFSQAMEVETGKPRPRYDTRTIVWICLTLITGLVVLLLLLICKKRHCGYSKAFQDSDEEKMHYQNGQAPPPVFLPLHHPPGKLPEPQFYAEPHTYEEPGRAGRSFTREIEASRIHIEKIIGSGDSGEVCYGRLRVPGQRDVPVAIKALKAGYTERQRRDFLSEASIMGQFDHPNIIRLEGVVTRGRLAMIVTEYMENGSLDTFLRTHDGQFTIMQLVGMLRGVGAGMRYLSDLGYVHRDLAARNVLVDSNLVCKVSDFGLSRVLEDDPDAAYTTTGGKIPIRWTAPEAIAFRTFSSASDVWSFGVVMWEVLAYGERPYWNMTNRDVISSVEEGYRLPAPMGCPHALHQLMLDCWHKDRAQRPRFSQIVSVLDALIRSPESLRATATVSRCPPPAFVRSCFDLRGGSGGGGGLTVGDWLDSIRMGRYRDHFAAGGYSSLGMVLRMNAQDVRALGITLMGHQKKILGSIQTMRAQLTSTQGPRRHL

[30] = target: Ephrin type-A receptor 4 (Homo sapiens) (UniProt P54764); details: Compound concentration 1000.0 nM
[31] = target: Voltage-dependent N-type calcium channel subunit alpha-1B (Rattus norvegicus) (UniProt Q02294); details: Compound concentration 10.0 uM
[32] = system: Phosphatidylinositol 4,5-bisphosphate 3-kinase catalytic subunit alpha isoform (Homo sapiens), P42336 [I800L]; details: Compound concentration 1000.0 nM
[33] = system: Receptor-type tyrosine-protein kinase FLT3 (Homo sapiens), P36888 [N841I]; details: Compound concentration 1000.0 nM
[34] = target: Sigma intracellular receptor 2 (Homo sapiens) (UniProt Q5BJF2); details: Compound concentration 10.0 uM
[35] = target: Serine/threonine-protein kinase 16 (Homo sapiens) (UniProt O75716); details: Compound concentration 1000.0 nM
Sequence of Serine/threonine-protein kinase 16 (Homo sapiens) (O75716 whole entry): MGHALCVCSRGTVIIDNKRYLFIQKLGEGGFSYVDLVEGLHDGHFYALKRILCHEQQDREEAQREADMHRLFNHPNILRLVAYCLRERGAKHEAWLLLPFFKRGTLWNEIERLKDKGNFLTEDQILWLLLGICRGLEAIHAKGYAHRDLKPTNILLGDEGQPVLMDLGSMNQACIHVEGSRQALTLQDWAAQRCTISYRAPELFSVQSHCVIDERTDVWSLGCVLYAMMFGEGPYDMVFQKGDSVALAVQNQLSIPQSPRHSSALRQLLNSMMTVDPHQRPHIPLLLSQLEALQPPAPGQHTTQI

[36] = target: Fibroblast growth factor receptor 4 (Homo sapiens) (UniProt P22455); details: Compound concentration 1000.0 nM
Sequence of Fibroblast growth factor receptor 4 (Homo sapiens) (P22455 22-802 limits assumed): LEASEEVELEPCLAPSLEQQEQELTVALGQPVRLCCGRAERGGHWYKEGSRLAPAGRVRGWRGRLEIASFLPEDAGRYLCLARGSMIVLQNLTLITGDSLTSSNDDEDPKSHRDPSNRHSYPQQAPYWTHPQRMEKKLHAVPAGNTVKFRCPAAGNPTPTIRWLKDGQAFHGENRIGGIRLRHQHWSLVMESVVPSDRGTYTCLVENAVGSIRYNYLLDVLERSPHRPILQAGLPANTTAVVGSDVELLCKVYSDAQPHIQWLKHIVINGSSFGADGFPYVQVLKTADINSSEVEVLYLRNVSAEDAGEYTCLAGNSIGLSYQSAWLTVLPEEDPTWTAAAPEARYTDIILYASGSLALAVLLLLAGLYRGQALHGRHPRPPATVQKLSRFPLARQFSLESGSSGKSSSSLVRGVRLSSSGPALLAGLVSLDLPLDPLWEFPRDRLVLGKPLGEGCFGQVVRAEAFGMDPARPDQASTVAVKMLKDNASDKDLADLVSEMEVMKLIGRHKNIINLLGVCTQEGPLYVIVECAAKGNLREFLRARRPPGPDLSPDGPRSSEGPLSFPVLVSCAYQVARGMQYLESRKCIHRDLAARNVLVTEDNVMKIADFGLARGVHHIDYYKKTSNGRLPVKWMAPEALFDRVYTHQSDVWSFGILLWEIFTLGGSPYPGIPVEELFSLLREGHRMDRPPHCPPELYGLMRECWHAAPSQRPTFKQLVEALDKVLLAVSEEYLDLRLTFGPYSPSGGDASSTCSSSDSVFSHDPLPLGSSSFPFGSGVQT

[37] = target: Adrenergic receptor alpha-2 (Rattus norvegicus) (UniProt P22086+P19328+P22909); details: Compound concentration 10.0 uM
[38] = target: Calcium/calmodulin-dependent protein kinase type II subunit delta (Homo sapiens) (UniProt Q13557); details: Compound concentration 1000.0 nM
[39] = target: Sodium/potassium-transporting ATPase subunit alpha-1 (Sus scrofa) (UniProt P05024); details: Compound concentration 10.0 uM
[40] = target: 5-hydroxytryptamine receptor 2A (Homo sapiens) (UniProt P28223); details: Compound concentration 10.0 uM
[41] = target: Sigma receptor (Homo sapiens) (UniProt Q99720+Q5BJF2); details: Cavia porcellus; Compound concentration 10.0 uM
[42] = target: Opioid receptor (Rattus norvegicus) (UniProt P33533+P34975+P33535); details: Compound concentration 10.0 uM
[43] = target: NT-3 growth factor receptor (Homo sapiens) (UniProt Q16288); details: Compound concentration 1000.0 nM
Sequence of NT-3 growth factor receptor (Homo sapiens) (Q16288 32-839 limits assumed): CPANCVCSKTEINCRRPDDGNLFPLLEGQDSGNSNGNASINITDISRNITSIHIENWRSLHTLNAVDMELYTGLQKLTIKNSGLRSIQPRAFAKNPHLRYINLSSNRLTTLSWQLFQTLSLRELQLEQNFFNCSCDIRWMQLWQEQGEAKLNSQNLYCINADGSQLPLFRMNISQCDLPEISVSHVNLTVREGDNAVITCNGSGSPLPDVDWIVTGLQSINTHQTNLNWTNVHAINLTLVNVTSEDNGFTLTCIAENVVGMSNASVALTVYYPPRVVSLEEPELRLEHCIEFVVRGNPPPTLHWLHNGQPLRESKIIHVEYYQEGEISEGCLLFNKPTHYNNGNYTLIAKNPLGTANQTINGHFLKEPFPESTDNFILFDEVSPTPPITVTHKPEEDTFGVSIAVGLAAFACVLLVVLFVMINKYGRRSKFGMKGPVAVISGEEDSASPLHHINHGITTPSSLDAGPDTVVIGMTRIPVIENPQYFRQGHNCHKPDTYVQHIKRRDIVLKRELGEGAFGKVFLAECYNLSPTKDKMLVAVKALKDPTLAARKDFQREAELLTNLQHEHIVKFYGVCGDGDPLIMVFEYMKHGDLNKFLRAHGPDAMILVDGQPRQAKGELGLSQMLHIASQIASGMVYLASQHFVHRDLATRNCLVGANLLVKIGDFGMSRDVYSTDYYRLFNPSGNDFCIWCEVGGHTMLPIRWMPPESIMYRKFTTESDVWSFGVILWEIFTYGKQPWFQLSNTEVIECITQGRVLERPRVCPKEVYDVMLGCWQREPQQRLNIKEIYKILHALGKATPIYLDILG

[44] = target: Calcium-dependent protein kinase 1 (Plasmodium falciparum) (UniProt P62344); details: Compound concentration 1000.0 nM
Sequence of Calcium-dependent protein kinase 1 (Plasmodium falciparum) (P62344 2-524 limits assumed): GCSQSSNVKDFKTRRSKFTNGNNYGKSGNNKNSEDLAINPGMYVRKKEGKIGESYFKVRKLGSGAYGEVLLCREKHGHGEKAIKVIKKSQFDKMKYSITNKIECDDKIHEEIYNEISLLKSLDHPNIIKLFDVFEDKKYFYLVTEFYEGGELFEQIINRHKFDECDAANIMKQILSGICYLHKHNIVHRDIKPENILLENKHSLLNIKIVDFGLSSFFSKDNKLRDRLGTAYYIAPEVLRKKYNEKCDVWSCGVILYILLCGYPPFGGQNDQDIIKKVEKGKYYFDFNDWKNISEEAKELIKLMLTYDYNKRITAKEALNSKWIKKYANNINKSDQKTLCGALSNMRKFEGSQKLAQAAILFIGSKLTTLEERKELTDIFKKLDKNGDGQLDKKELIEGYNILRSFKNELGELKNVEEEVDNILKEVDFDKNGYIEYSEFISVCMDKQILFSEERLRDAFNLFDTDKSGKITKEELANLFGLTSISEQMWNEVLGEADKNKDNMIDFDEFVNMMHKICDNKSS

[45] = target: Beta-1 adrenergic receptor (Homo sapiens) (UniProt P08588); details: Compound concentration 10.0 uM; remark: listed apart in the source

Q: For `CCS(=O)(=O)c1cc2cc(C[C@](O)(CC(C)(C)c3ccc(F)cc3C(N)=O)C(F)(F)F)[nH]c2cn1`, which residual activity [1] is on record?
A: 87%

Q: And the residual activity [2]?
A: 95%

Q: And the residual activity [3]?
A: 96%

Q: And the residual activity [4]?
A: 96%

Q: And the residual activity [5]?
A: 94%

Q: And the residual activity [6]?
A: 90%

Q: And the residual activity [7]?
A: 75%

Q: And the residual activity [8]?
A: 100%

Q: And the residual activity [9]?
A: 89%

Q: And the residual activity [10]?
A: 100%

Q: What about the residual activity [11] of the same compound?
A: 85%

Q: And the residual activity [12]?
A: 75%

Q: And the residual activity [13]?
A: 100%

Q: What about the residual activity [14] of the same compound?
A: 85%

Q: What about the residual activity [15] of the same compound?
A: 106%

Q: And the residual activity [16]?
A: 101%

Q: What about the residual activity [17] of the same compound?
A: 100%

Q: And the residual activity [18]?
A: 98%

Q: What about the residual activity [19] of the same compound?
A: 103%

Q: What about the residual activity [20] of the same compound?
A: 103%

Q: What about the residual activity [21] of the same compound?
A: 87%

Q: And the residual activity [22]?
A: 93%

Q: And the residual activity [23]?
A: 99%

Q: What about the residual activity [24] of the same compound?
A: 91%

Q: What about the residual activity [25] of the same compound?
A: 81%

Q: And the residual activity [26]?
A: 92%

Q: What about the residual activity [27] of the same compound?
A: 93%

Q: And the residual activity [28]?
A: 94%

Q: And the residual activity [29]?
A: 82%

Q: What about the residual activity [30] of the same compound?
A: 100%

Q: What about the residual activity [31] of the same compound?
A: 96%

Q: And the residual activity [32]?
A: 73%

Q: What about the residual activity [33] of the same compound?
A: 93%

Q: And the inhibition [34]?
A: 9.04%

Q: And the residual activity [35]?
A: 100%

Q: What about the residual activity [36] of the same compound?
A: 72%

Q: And the residual activity [37]?
A: 106%

Q: And the residual activity [38]?
A: 100%

Q: What about the residual activity [39] of the same compound?
A: 115%

Q: And the inhibition [40]?
A: 12.6%

Q: What about the residual activity [41] of the same compound?
A: 86%

Q: And the residual activity [42]?
A: 95%

Q: And the residual activity [43]?
A: 94%

Q: What about the residual activity [44] of the same compound?
A: 100%

Q: What does the source list for `CCS(=O)(=O)c1cc2cc(C[C@@](O)(CC(C)(C)c3ccc(F)cc3C(N)=O)C(F)(F)F)[nH]c2cn1`?
A: residual activity [4]: 89%; residual activity [5]: 95%; residual activity [8]: 100%; residual activity [9]: 99%; residual activity [12]: 0%; residual activity [13]: 100%; residual activity [17]: 100%; residual activity [22]: 87%; residual activity [24]: 81%; residual activity [28]: 93%; residual activity [29]: 100%; residual activity [30]: 95%; residual activity [32]: 70%; residual activity [33]: 100%; residual activity [35]: 91%; residual activity [36]: 100%; residual activity [38]: 81%; inhibition [40]: 14.1%; inhibition [45]: -8.85%; residual activity [43]: 82%; residual activity [44]: 99%
